The target in the test is T1, human glucagon receptor (Homo sapiens, UniProt P47871).
T1 construct: expressed in transfected cells; host or cells: CHO-K1 cells, stably transfected
Nature of the test: Glucagon cAMP assay (Cisbio cAMP detection). The format is cell-based. As to the method:
The Cisbio cAMP detection assay is used to determine the ability of punitive glucagon antagonist to block glucagon induced cAMP production. Potential glucagon antagonists are re-suspended and diluted in 100% DMSO. Prior to use in the Glucagon cAMP assay 100×DMSO compound stocks are diluted 20× with DMEM-F12 media (Invitrogen) containing either 0.1% or 4% BSA. 2 uls of 5× compound stocks are spotted into the appropriate wells of low binding white solid bottom 384 well plates (Corning). 2 uls of 5% DMSO or known glucagon antagonist are added to each plate to define the assay window. CHOK1 cells stably transfected with the human glucagon receptor are removed from culture flasks with cell dissociation buffer. Cell pellets are re-suspended, at a concentration of 8.3e^5 cells/ml in DMEM-F12 with or without 4% BSA and 200 uM IBMX. 6 uls of cell suspensions are added to the assay plates. Plates are incubated for 20 min at room temperature prior to the addition of a 100 pM challenge dose of glucagon. On a separate plate glucagon dose response curves are run to determine the EC50 of glucagon. After a 30 min room temperature incubation the reaction is terminated by the addition of lysis buffer containing the cAMP detection reagents. Plates are incubated for an additional 60 min at room temperature prior to being read on the Perkin Elmer fluorescent plate reader. Raw is converted to nM of cAMP produced based on a cAMP standard curve. Converted data is then analyzed using the Pfizer data analysis program. IC50 values are determined from the generated sigmoidal dose response curves. Kb values are the calculated using a modified Cheng-Prusoff equation.

T1 sequence (P47871 26-477): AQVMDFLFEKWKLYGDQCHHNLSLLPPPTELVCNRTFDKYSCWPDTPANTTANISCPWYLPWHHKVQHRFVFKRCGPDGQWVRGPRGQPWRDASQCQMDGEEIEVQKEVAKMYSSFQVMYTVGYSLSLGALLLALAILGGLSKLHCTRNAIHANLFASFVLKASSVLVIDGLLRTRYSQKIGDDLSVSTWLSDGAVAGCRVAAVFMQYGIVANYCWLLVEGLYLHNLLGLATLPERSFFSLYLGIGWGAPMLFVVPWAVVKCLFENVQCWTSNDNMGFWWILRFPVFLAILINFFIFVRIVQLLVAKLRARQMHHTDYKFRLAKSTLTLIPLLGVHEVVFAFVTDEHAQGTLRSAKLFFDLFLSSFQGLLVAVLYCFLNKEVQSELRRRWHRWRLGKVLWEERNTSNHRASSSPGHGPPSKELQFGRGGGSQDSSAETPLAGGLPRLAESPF

Regarding `COc1ccccc1-c1ccc(C(CC(C)C)Nc2ccc(C(=O)NCCC(=O)O)cn2)cc1` (racemic) [Example 1.43, (+/−)-3-(6-(1-(2′-methoxybiphenyl-4-yl)-3-methylbutylamino)nicotinamido)propanoic acid], the Kb is 190 nM. `CC(C)CC(Nc1ccc(C(=O)NCCC(=O)O)cn1)c1ccc(-c2ccccc2Cl)cc1` (racemic) [Example 1.44, (+/−)-3-(6-(1-(2′-chlorobiphenyl-4-yl)-3-methylbutylamino)nicotinamido)propanoic acid] displayed a Kb of 580 nM. Consider `CC(C)CC(Nc1ccc(C(=O)NCCC(=O)O)cn1)c1ccc(-c2ccc(C#N)cc2)cc1` (racemic) [Example 1.45, (+/−)-3-(6-(1-(4′-cyanobiphenyl-4-yl)-3-methylbutylamino)nicotinamido)propanoic acid], for which the Kb worked out at 620 nM. As for `CCOc1ccc(-c2ccc(C(CC(C)C)Nc3ccc(C(=O)NCCC(=O)O)cn3)cc2)cc1` (racemic) [Example 1.46, (+/−)-3-(6-(1-(4′-ethoxybiphenyl-4-yl)-3-methylbutylamino)nicotinamido)propanoic acid], the Kb amounted to 92 nM. The compound `COc1cccc(-c2ccc(C(CC(C)C)Nc3ccc(C(=O)NCCC(=O)O)cn3)cc2)c1` (racemic) [Example 1.47, (+/−)-3-(6-(1-(3′-methoxybiphenyl-4-yl)-3-methylbutylamino)nicotinamido)propanoic acid] gave a Kb of 180 nM. `Cc1cccc(C)c1-c1ccc(C(CC(C)C)Nc2ccc(C(=O)NCCC(=O)O)cn2)cc1` (racemic) [Example 1.48, (+/−)-3-(6-(1-(2′,6′-dimethylbiphenyl-4-yl)-3-methylbutylamino)nicotinamido)propanoic acid] came in with a Kb of 1200 nM. For `Cc1ccc(C)c(-c2ccc(C(CC(C)C)Nc3ccc(C(=O)NCCC(=O)O)cn3)cc2)c1` (racemic) [Example 1.49, (+/−)-3-(6-(1-(2′,5′-dimethylbiphenyl-4-yl)-3-methylbutylamino)nicotinamido)propanoic acid], the Kb turned out to be 750 nM.

In the case of `Cc1ccc(-c2ccc(C(CC(C)C)Nc3ccc(C(=O)NCCC(=O)O)cn3)cc2)cc1` (racemic) [Example 1.50, (+/−)-3-(6-(3-methyl-1-(4′-methylbiphenyl-4-yl)butylamino)nicotinamido)propanoic acid], the Kb amounted to 70 nM.

Turning to `CC(C)CC(Nc1ccc(C(=O)NCCC(=O)O)cn1)c1ccc(-c2ccc(F)cc2)cc1` (racemic) [Example 1.51, (+/−)-3-(6-(1-(4′-fluorobiphenyl-4-yl)-3-methylbutylamino)nicotinamido)propanoic acid], the Kb is 160 nM. Next, `COc1ccc(-c2ccc(C(CC(C)C)Nc3ccc(C(=O)NCCC(=O)O)cn3)cc2)cc1` (racemic) [Example 1.52, (+/−)-3-(6-(1-(4′-methoxybiphenyl-4-yl)-3-methylbutylamino)nicotinamido)propanoic acid]: 120 nM; `CC(C)CC(Nc1ccc(C(=O)NCCC(=O)O)cn1)c1ccc(-c2ccc(Cl)cc2)cc1` (racemic) [Example 1.53, (+/−)-3-(6-(1-(4′-chlorobiphenyl-4-yl)-3-methylbutylamino)nicotinamido)propanoic acid]: 46 nM; `CCc1ccc(-c2ccc(C(CC(C)C)Nc3ccc(C(=O)NCCC(=O)O)cn3)cc2)cc1` (racemic) [Example 1.54, (+/−)-3-(6-(1-(4′-ethylbiphenyl-4-yl)-3-methylbutylamino)nicotinamido)propanoic acid]: 230 nM. The compound `CC(C)CC(Nc1ccc(C(=O)NCCC(=O)O)cn1)c1ccc(-c2ccccn2)cc1` (racemic) [Example 1.55, (+/−)-3-(6-(3-methyl-1-(4-(68yridine-2-yl)phenyl)butylamino)nicotinamido)propanoic acid] registered a Kb of 4800 nM. As for `CC(C)CC(Nc1ccc(C(=O)NCCC(=O)O)cn1)c1ccc(-c2ccc(C(=O)N(C)C)cc2)cc1` (racemic) [Example 1.56, (+/−)-3-(6-(1-(4′-(dimethylcarbamoyl)biphenyl-4-yl)-3-methylbutylamino)nicotinamido)propanoic acid], the Kb came to 5000 nM. Next, `CC(C)CC(Nc1ccc(C(=O)NCCC(=O)O)cn1)c1ccc(-c2ccc(C(C)C)cc2)cc1` (racemic) [Example 1.57, (+/−)-3-(6-(1-(4′-isopropylbiphenyl-4-yl)-3-methylbutylamino)nicotinamido)propanoic acid]: 120 nM; `CC(C)CC(Nc1ccc(C(=O)NCCC(=O)O)cn1)c1ccc(-c2ccc(OC(F)(F)F)cc2)cc1` (racemic) [Example 1.58, (+/−)-3-(6-(3-methyl-1-(4′-(trifluoromethoxy)biphenyl-4-yl)butylamino)nicotinamido)propanoic acid]: 120 nM; `CC(C)CC(Nc1ccc(C(=O)NCCC(=O)O)cn1)c1ccc(-c2ccc(S(C)(=O)=O)cc2)cc1` (racemic) [Example 1.59, (+/−)-3-(6-(3-methyl-1-(4′-(methylsulfonyl)biphenyl-4-yl)butylamino)nicotinamido)propanoic acid]: 1500 nM. With `CC(C)CC(Nc1ccc(C(=O)NCCC(=O)O)cn1)c1ccc(-c2ccc(C(F)(F)F)nc2)cc1` (racemic) [Example 1.60, (+/−)-3-(6-(3-methyl-1-(4-(6-(trifluoromethyl)pyridin-3-yl)phenyl)butylamino)nicotinamido)propanoic acid] the figure was 280 nM.

Compound `Cc1cc(NC(CC(C)C)c2ccc(C(=O)NCCC(=O)O)cn2)cc(C)c1-c1ccc(C(F)(F)F)cc1` (racemic) [Example 2.1, (+/−)-3-(6-(1-(2,6-dimethyl-4′-(trifluoromethyl)biphenyl-4-ylamino)-3-methylbutyl)nicotinamido)propanoic acid] returned a Kb of 38 nM. With `CC(C)CC(Nc1ccc(-c2ccc(C(F)(F)F)cc2)cc1)c1ccc(C(=O)NCCC(=O)O)cn1` (racemic) [Example 2.4, (+/−)-3-(6-(3-methyl-1-(4′-(trifluoromethyl)biphenyl-4-ylamino)butyl)nicotinamido)propanoic acid] the figure was 300 nM; with `CC(C)CC(Nc1ccc(-c2ccc(C(F)(F)F)cc2)nc1)c1ccc(C(=O)NCCC(=O)O)cn1` (racemic) [Example 2.7, (+/−)-3-(6-(3-methyl-1-(6-(4-(trifluoromethyl)phenyl)pyridin-3-ylamino)butyl)nicotinamido)propanoic acid], 280 nM. Next, `Cc1cc(NC(CC(C)C)c2ccc(C(=O)NCCC(=O)O)cn2)cnc1-c1ccc(C(F)(F)F)cc1` (racemic) [Example 2.8, (+/−)-3-(6-(3-methyl-1-(5-methyl-6-(4-(trifluoromethyl)phenyl)pyridin-3-ylamino)butyl)nicotinamido)propanoic acid]: 130 nM; `CCCC(Nc1cnc(-c2ccc(C(F)(F)F)cc2)c(C)c1)c1ccc(C(=O)NCCC(=O)O)cn1` (racemic) [Example 2.9, (+/−)-3-(6-(1-(5-methyl-6-(4-(trifluoromethyl)phenyl)pyridin-3-ylamino)butyl)nicotinamido)propanoic acid]: 820 nM; `CC(Nc1ccc(-c2ccc(C(F)(F)F)cc2)cc1)c1ccc(C(=O)NCCC(=O)O)cn1` (racemic) [Example 2.10, (+/−)-3-(6-(1-(4′-(trifluoromethyl)biphenyl-4-ylamino)ethyl)nicotinamido)propanoic acid]: 1700 nM.

The values above are taken from patent US8809342B2, “Glucagon receptor modulators” (Pfizer Inc., priority 2010, dated 2014).
